≈ marks a conversion by molar mass, not a printed value. Calls of active or inactive are those of the source. The calls are words filed in the database; no cut-off is given here.
Legend:
HUVEC [1] = assay: […] activity in HUVEC assessed as wound closure at 100 ng/ml after 24 hrs by phase-contrast microscopic analysis; format: functional, cell-based; conditions: Homo sapiens
HUVEC [2] = assay: Pro-angiogenic activity in HUVEC assessed as increase in meshes formation after 22 hrs by phase-contrast image analysis; format: functional, cell-based; conditions: Homo sapiens
HUVEC [3] = assay: Pro-angiogenic activity in HUVEC assessed as increase in tubular network formation at 0.1 ng/ml preincubated for 30 mins followed by ZM 323881 HCl addition and measured after 22 hrs by phase-contrast image analysis; format: functional, cell-based; conditions: Homo sapiens
HUVEC [4] = assay: Pro-angiogenic activity in HUVEC assessed as increase in cell proliferation at 2500 ng/ml after 24 to 72 hrs by DAPI staining-based spectrofluorometric analysis relative to control; format: functional, Homo sapiens
HUVEC [5] = assay: Pro-angiogenic activity in HUVEC assessed as increase in meshes formation at 0.1 to 10 ng/ml after 22 hrs by phase-contrast image analysis; format: functional, cell-based; conditions: Homo sapiens
HUVEC [6] = assay: Pro-angiogenic activity in HUVEC assessed as increase in tubular network formation at 0.1 ng/ml after 22 hrs by phase-contrast image analysis; format: functional, cell-based; conditions: Homo sapiens
HUVEC [7] = assay: Pro-angiogenic activity in HUVEC assessed as increase in cell proliferation at 2500 ng/ml after 96 hrs by DAPI staining-based spectrofluorometric analysis relative to control; format: functional, Homo sapiens
HUVEC [8] = assay: Effect on cell morphology in HUVEC at 1 to 2500 ng/ml after 24 to 96 hrs by DAPI staining-based spectrofluorometric analysis; format: functional; conditions: Homo sapiens
HUVEC [9] = assay: Pro-angiogenic activity in HUVEC assessed as increase in cell proliferation after 96 hrs by DAPI staining-based spectrofluorometric analysis; format: functional; conditions: Homo sapiens

O=C(OCC1=C[C@@H](O)[C@@H]2C=CO[C@@H](O[C@@H]3O[C@H](CO)[C@@H](O)[C@H](O)[C@H]3O)[C@H]12)c1ccc(O)cc1 [AGNUSIDE]
Activity (HUVEC [1]): Active | Activity (HUVEC [2]): Dose-dependent effect | Activity (HUVEC [3]): Active | Activity (HUVEC [4]): 20 - 30% | Activity (HUVEC [5]): inactive | Activity (HUVEC [6]): Active | Activity (HUVEC [7]): <=56% | Activity (HUVEC [8]): inactive | EC50 (HUVEC [9]): 1.38 µg/mL (≈ 2.95 µM)
